Assay results: US20220322803A1 (KONKUK UNIVERSITY INDUSTRIAL COOPERATION CORP, priority 2019, published 2022)

What was measured:
[1] = Perm of brown hair, hydrogen water vs hydrogen peroxide as second agent; conditions: 30 washes, hydrogen water 10 times at 2-minute intervals, hydrogen peroxide left 10 minutes
Method: According to the method used in a general beauty salon using a rod, cysteine treatment as a reduction agent, intermediate washing, setting, oxidation agent treatment, and measurement after washing were performed in the order. Brown hair was treated with a reduction agent (Hair 119 Clinic SuBoon Perm, Eson Chemical, Korea) and left at 37° C. for 5 minutes. […] Then the hair was separated. After washing them once, the length of perm hair was measured. After that, the perm hair length was measured when repeatedly washed 30 times, once a day (FIG. 3C). Natural Shampoo (Repit, Korea) was used as a cleaning agent. A method of preparing hydrogen water is as follows. After adding NaCl to distilled water to prepare a 0.05% NaCl solution, salted distilled water was boiled for about 5 minutes to remove dissolved oxygen as much as possible, and then quenched to 25° C. (water cooling).

[2] = Cold perm with 25°C electrolyzed water sprayed as second agent; conditions: hydrogen peroxide as second agent; basis of commercial suitability; hair 27 cm
Method: About 50 strands of natural black hair were fixed and cut to 27 cm in length and used in the experiment. The perm process was performed as follows. The natural black hair was fixed and washed according to the above standards. After washing, the dried hair bundle was reduced by treatment with the first agent (Hair 119 Clinic SuBoon Perm, Eson Chemical, Korea) at 37° C. for 25 minutes. After the reduction process, the first agent was removed by washing with distilled water to increase the reproducibility of the wave efficiency. […] After the application was finished, the rod was removed.

[3] = Straight perm of curly hair; conditions: second agent (gel with 0.5% xanthan gum for the waters) oxidized 10 minutes
Method: The first agent used in straight perm was Standard of Hair […] Two Way Straight (UCL, Incheon). The second agent used in the perm was a mixture of Standard of Hair […] Two Way Straight (UCL, Incheon) and xanthan gum in each hydrogen water and electrolyzed water. Tap water was used to generate the used electrolyzed hydrogen water and electrolyzed water. […] To each of these, xanthan gum was added to 0.5% and mixed to form a gel. The perm process proceeded as follows. The first agent was applied to the hair and softened at 37° C. for 30 minutes. […] After the oxidation process was completed, the hair was washed, photographed, and measured.

Structure (SMILES): OO [hydrogen peroxide]
- sagging of wave [1]: sagging was seen in 30 washes
- length of the perm hair after washing once [2]: about 22 cm
- result of straight perm treatment [3]: curly hair was well straightened
- split ends / hair surface (bleached, dyed hair after perm): had split ends
- dye eluted (washing once after the perm treatment, from L value): 11.43%
